Results on 1 compound are retold here after publication PMC4561889, “Geranylgeranylacetone selectively binds to the HSP70 of Helicobacter pylori and alters its coccoid morphology” (Scientific Reports, 2015).

Assay [1] concerns the target T1, HSP70 (human HSP70) (Homo sapiens, UniProt P0DMV8).
T1 construct: gene HSPA1A; full-length cDNA (from R. Morimoto) in pCold I (vector His tag, cleavage not mentioned); forward primer encodes N-terminus MAKAAAV
Briefly: citrate synthase thermal aggregation (light scattering, […] nm). Format: biochemical. The conditions noted are these: 50 mM HEPES pH 7.4, 50 C; 50 μM HSP70, 0.25 μM citrate synthase, 5 mM GGA.

For assay [2], the target named is T1, HSP70 (human HSP70). Description: SPR (BIAcore […]), HSP70 amine-coupled to CM5 chip. Format: binding. In general terms: Surface plasmon resonance follows binding to a sensor surface in real time, without labels.
Assay [3] has as its target T2, DnaK (H. pylori HSP70) (Helicobacter pylori, UniProt P55994).
T2 construct: full length cloned from genomic DNA of ATCC43504 in pCold I (vector His tag, cleavage not mentioned), E. coli BL21, Ni-NTA
T2 sequence (P55994 2-620): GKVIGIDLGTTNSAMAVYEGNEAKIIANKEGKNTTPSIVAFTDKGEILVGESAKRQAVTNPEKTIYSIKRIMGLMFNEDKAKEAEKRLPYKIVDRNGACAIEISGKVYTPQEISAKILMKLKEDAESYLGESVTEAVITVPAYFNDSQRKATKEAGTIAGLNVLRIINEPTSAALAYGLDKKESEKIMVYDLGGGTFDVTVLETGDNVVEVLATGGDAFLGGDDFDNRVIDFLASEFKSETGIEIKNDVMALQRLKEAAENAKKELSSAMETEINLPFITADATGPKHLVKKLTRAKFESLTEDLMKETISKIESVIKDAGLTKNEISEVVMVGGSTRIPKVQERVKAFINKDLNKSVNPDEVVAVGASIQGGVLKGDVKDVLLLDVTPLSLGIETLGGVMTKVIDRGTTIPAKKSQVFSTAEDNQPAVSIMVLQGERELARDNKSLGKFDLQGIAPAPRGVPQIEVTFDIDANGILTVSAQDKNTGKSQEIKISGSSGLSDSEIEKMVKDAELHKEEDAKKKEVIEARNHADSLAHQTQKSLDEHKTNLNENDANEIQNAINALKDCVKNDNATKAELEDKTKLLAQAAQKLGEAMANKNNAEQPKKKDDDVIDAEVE
Description: SPR (BIAcore […]), DnaK amine-coupled to CM5 chip. Format: binding.

T1 sequence (P0DMV8 whole entry): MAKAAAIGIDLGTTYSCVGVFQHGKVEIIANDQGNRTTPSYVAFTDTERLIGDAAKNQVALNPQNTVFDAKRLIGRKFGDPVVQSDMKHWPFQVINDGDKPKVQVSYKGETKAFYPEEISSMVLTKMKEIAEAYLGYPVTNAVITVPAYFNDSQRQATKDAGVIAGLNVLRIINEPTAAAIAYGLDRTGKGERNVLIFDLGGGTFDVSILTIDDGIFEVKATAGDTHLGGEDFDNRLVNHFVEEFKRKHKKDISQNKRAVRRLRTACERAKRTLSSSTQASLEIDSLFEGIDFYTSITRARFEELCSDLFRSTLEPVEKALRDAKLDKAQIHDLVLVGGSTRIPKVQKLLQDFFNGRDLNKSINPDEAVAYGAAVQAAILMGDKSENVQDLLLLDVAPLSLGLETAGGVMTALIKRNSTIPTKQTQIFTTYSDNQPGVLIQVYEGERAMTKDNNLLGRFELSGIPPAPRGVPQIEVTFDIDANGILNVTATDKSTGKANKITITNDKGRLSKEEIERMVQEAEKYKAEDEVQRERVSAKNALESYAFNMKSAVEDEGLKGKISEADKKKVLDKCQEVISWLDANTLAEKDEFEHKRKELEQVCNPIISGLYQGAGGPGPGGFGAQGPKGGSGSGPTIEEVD

In the case of `CC(=O)CC/C=C(\C)CC/C=C(\C)CC/C=C(\C)CCC=C(C)C` [GGA, 6,10,14,18-tetramethyl-5,9,13,17-nonadecatetraen-2-one], in assay [1], the “% reduction of chaperone activity at 5 mM” value was determined as 15%. Besides, the Kd (as a rule, the concentration at which binding is half-saturated) was 2000 nM in assay [2] and 75.5 nM in assay [3].
